What was measured:
[1] = biological target: T1, GST-tagged Tnks-1 (1023-1327 aa) (Homo sapiens, UniProt O95271); experiment: TNKS1 activity ELISA (autoparsylation assay); assay type: biochemical
T1 construct: GST-tagged Tnks-1 (1023-1327 aa, prepared in-house); made in house
Experimental: (§1) Description of the TNKS1 and TNKS2 ELISA Assay
(§2) Biochemical Activity Testing of TNKS 1 and 2: Activity ELISA (Autoparsylation Assay)
(§3) For analysis of autoparsylation activity of TNKS 1 and 2 an activity ELISA iss performed: In the first step GST tagged TNKS is captured on a Glutathione coated plate. Then the activity assay with biotinylated NAD is performed in the absence/presence of the compounds. During the enzymatic reaction GST tagged TNKS transfers biotinylated ADP-ribose to itself from biotinylated NAD as co-substrate. For the detection streptavidin-HRP conjugate is added that binds to the biotinylated TNKS and is thereby captured to the plates. The amount of biotinylated resp. autoparsylated TNKS is detected with a luminescence substrate for HRP. The level of the luminescence signal correlates directly with the amount of autoparsylated TNKS and therefore with activity of TNKS.
(§4) The activity ELISA is performed in 384 well Glutathione coated microtiter plates (Express capture Glutathione coated plate, Biocat, Heidelberg, Germany). The plates are pre-equilibrated with PBS. Then the plates are incubated with 50 μl 20 ng/well GST-tagged Tnks-1 (1023-1327 aa, prepared in-house), respectively GST-tagged Tnks-2 (873-1166 aa, prepared in-house) in assay buffer (50 mM HEPES, 4 mM Mg-chloride, 0.05% Pluronic F-68, 2 mM DTT, pH 7.7) overnight at 4° C. The plates are washed 3 times with PBS-Tween-20. The wells are blocked by incubation at room temperature for 20 minutes with 50 μl blocking buffer (PBS, 0.05% Tween-20, 0.5% BSA). Afterwards the plates are washed 3 times with PBS-Tween-20. The enzymatic reaction is performed in 50 μl reaction solution (50 mM HEPES, 4 mM Mg-chloride, 0.05% Pluronic F-68, 1.4 mM DTT, 0.5% DMSO, pH 7.7) with 10 μM bio-NAD (Biolog, Life science Inst., Bremen, Germany) as co-substrate in the absence or presence of the test compound (10 dilution concentrations) for 1 hour at 30° C. The reaction is stopped by 3 times washing with PBS-Tween20. For the detection 50 μl of 20 ng/μl Streptavidin, HRP conjugate (MoBiTec, Göttingen, Germany) in PBS/0.05% Tween-20/0.01% BSA are added and the plates are incubated for 30 minutes at room temperature. After three times washing with PBS-Tween-20 50 μl of SuperSignal ELISA Femto Maximum sensitivity substrate solution (ThermoFisherScientific (Pierce), Bonn, Germany) are added. Following a 1 minute incubation at room temperature luminescence signals are measured with an Envision multimode reader (Perkin Elmer LAS Germany GmbH) at 700 nm. The full value used is the inhibitor-free reaction. The pharmacological zero value used is XAV-939 (Tocris) in a final concentration of 5 μM. The inhibitory values (IC50) are determined using either the program Symyx Assay Explorer® or Condosseo® from GeneData.

[2] = biological target: T2, GST-tagged Tnks-2 (873-1166 aa) (Homo sapiens, UniProt Q9H2K2); experiment: TNKS2 activity ELISA (autoparsylation assay); assay type: biochemical
T2 construct: GST-tagged Tnks-2 (873-1166 aa, prepared in-house); made in house
Experimental: as §1, §2, §3, §4

Tankyrase = experiment: Cellular inhibition of Tankyrase: Axin2 level in DLD1 cells (Luminex); assay type: cell-based; conditions: 24 hours, Axin2 increase, read-out: EC50 [M] TNKS cellular assay
Experimental: Measurement of Cellular Inhibition of Tankyrase
Since Tankyrases have been described to modulate cellular level of Axin2 (Huang et al., 2009; Nature) the increase of Axin2 level is used as read-out for determination of cellular inhibition of Tankyrases in a Luminex based assay.
Cells of the colon carcinoma cell line DLD1 are plated in 96 well plates with 1.5×10^4 cells per well. Next day, cells are treated with a serial dilution of test compound in seven steps as triplicates with a final DMSO concentration of 0.3%. After 24 hours, cells are lysed in lysis buffer (20 mM Tris/HCl pH 8.0, 150 mM NaCl, 1% NP40, 10% Glycerol) and lysates are cleared by centrifugation through a 96 well filter plate (0.65 μm). Axin2 protein is isolated from cell lysates by incubation with a monoclonal anti-Axin2 antibody (R&D Systems #MAB6078) that is bound to fluorescent carboxybeads. Then, bound Axin2 is specifically detected with a polyclonal anti-Axin2 antibody (Cell Signaling #2151) and an appropriate PE-fluorescent secondary antibody. The amount of isolated Axin2 protein is determined in a Luminex^200 machine (Luminex Corporation) according to the manufacturer's instruction by counting 100 events per well. Inhibition of Tankyrase by test compounds results in higher levels of Axin2 which directly correlates with an increase of detectable fluorescence. As controls cells are treated with solvent alone (neutral control) and with a Tankyrase reference inhibitor IWR-2 (3E-06 M) which refers as control for maximum increase of Axin2. For analysis, the obtained data are normalized against the untreated solvent control and fitted for determination of the EC50 values using the Assay Explorer software (Accelrys).

His-tagged Parp-1 = biological target: T3, His-tagged Parp-1 (Homo sapiens, UniProt P09874); experiment: PARP-1 autoparsylation HTRF assay; assay type: biochemical
T3 construct: purchased Enzo Life Sciences GmbH, Lörrach, Germany
Excerpt: Description of the PARP1 Assay
Biochemical Activity Testing of PARP-1: Autoparsylation Assay
The autoparsylation assay is run in two steps: the enzymatic reaction in which His-tagged Parp-1 transfers biotinylated ADP-ribose/ADP-ribose to itself from biotinylated NAD/NAD as co-substrate and the detection reaction where a time resolved FRET between cryptate labelled anti-His antibody bound to the His tag of the enzyme and Xlent® labelled-streptavidin bound the biotin-parsylation residue is analysed. The autoparsylation activity is detectable directly via the increase in HTRF signal.
The autoparsylation assay is performed as 384-well HTRF® (Cisbio, Codolet, France) assay format in Greiner low volume nb 384-well microtiter plates. 35 nM His-tagged Parp-1 (human, recombinant, Enzo Life Sciences GmbH, Lörrach, Germany) and a mixture of 125 nM bio-NAD (Biolog, Life science Inst., Bremen, Germany) and 800 nM NAD as co-substrate are incubated in a total volume of 6 μl (100 mM Tris/HCl, 4 mM Mg-chloride, 0.01% IGEPAL® CA630, 1 mM DTT, 0.5% DMSO, pH 8, 13 ng/μl activated DNA (BPS Bioscience, San Diego, US)) in the absence or presence of the test compound (10 dilution concentrations) for 150 min at 23° C. The reaction is stopped by the addition of 4 μl of the Stop/detection solution (70 nM SA-Xlent® (Cisbio, Codolet, France), 2.5 nM Anti-His-K® (Eu-labelled anti-His, Cisbio, Codolet, France) in 50 mM HEPES, 400 mM KF, 0.1% BSA, 20 mM EDTA, pH 7.0). After 1 h incubation at room temperature the HTRF iss measured with an Envision multimode reader (Perkin Elmer LAS Germany GmbH) at excitation wavelength 340 nm (laser mode) and emission wavelengths 615 nm and 665 nm. The ratio of the emission signals is determined. The full value used is the inhibitor-free reaction. The pharmacological zero value used is Olaparib (LClabs, Woburn, US) in a final concentration of 1 μM. The inhibitory values (IC50) are determined using either the program Symyx Assay Explorer® or Condosseo® from GeneData.

ρ-catenin = conditions: by increasing the levels of the AXIN1 and AXIN2 proteins; cited from earlier work
DLD-1-cancer cells = conditions: cited from earlier work

T3 sequence (P09874 whole entry): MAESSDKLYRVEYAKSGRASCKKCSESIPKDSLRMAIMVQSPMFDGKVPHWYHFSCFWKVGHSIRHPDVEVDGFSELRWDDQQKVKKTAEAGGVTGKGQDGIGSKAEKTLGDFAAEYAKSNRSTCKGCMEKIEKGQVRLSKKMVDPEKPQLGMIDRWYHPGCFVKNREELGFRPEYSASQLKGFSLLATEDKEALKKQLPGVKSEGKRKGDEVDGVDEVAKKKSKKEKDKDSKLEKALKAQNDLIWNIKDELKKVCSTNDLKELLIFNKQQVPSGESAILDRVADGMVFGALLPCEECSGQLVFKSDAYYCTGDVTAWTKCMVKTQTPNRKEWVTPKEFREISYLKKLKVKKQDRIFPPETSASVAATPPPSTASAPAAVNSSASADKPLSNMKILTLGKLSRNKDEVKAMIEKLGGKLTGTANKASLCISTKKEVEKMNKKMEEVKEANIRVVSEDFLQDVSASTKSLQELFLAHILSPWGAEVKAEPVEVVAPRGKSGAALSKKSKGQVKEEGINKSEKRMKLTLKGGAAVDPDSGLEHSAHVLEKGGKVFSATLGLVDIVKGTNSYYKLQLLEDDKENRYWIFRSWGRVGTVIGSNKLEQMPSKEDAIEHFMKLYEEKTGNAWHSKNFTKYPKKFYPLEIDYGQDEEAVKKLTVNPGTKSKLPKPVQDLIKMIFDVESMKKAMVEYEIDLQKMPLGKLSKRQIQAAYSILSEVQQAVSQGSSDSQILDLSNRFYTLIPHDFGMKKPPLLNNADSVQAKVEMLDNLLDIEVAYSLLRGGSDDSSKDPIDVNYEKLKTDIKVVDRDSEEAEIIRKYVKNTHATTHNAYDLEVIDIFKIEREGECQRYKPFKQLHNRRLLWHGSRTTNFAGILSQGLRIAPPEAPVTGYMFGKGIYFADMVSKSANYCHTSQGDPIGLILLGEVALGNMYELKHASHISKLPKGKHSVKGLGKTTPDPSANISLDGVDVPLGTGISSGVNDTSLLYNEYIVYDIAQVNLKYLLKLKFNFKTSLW
T2 sequence (Q9H2K2 873-1166): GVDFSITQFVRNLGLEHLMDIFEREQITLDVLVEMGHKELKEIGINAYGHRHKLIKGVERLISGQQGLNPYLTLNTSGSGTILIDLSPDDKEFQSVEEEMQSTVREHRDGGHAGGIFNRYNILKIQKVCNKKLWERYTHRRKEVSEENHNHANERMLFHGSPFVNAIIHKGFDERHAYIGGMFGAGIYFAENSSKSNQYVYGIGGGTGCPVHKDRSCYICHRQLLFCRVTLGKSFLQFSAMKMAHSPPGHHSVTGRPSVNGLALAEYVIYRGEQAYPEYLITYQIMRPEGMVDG
T1 sequence (O95271 1023-1327): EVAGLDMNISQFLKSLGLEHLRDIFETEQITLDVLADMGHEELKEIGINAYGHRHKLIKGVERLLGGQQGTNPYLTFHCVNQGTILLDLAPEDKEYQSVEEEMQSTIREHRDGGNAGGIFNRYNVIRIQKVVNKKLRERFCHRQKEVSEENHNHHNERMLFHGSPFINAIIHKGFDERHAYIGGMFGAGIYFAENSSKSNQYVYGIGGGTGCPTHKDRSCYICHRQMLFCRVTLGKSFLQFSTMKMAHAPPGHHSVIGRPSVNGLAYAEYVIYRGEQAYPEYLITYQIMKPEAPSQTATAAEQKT

SMILES | IC50 [1] [nM] | IC50 [2] [nM] | EC50 (Tankyrase) [M] | IC50 (His-tagged Parp-1) [nM] | Wnt-stimulated accumulation of ρ-catenin (ρ-catenin) | growth of DLD-1-cancer cells (DLD-1-cancer cells)
CCn1cc(-c2ccc(C(=O)C3CCN(C(=O)N(C)c4ccc(OC)cc4)CC3)cc2)cn1 [Compound A33, 4-[4-(1-ethyl-1H-pyrazol-4-yl)-benzoyl]-piperidine-1-carboxylic acid (4-methoxy-phenyl)-methyl-amide] | < 300 | < 300 | < 3e-07 | 3000 to 50000 | – | –
COCCn1cc(-c2ccc(C(=O)C3CCN(C(=O)N(C)c4ccc(OC)cc4)CC3)cc2)cn1 [Compound A30, 4-{4-[1-(2-methoxy-ethyl)-1H-pyrazol-4-yl]-benzoyl}-piperidine-1-carboxylic acid (4-methoxy-phenyl)-methyl-amide] | < 300 | < 300 | < 3e-07 | 3000 to 50000 | – | –
CCn1cc(-c2ccc(N(C)C(=O)N3CCC(C(=O)c4ccc(OC)cc4)CC3)cc2)cn1 [Compound A34, 4-(4-methoxy-benzoyl)-piperidine-1-carboxylic acid [4-(1-ethyl-1H-pyrazol-4-yl)-phenyl]-methyl-amide] | < 300 | < 300 | < 3e-07 | 3000 to 50000 | – | –
Oc1nc(-c2ccc(C(F)(F)F)cc2)nc2c1CSCC2 [XAV939] | – | – | – | – | blocked | inhibits growth
COCCn1cc(-c2ccc(C(=O)C3CCN(C(=O)N(C)c4ccc(-c5cnn(CCOC)c5)cc4)CC3)cc2)cn1 [Compound A32, 4-{4-[1-(2-methoxy-ethyl)-1H-pyrazol-4-yl]-benzoyl}-piperidine-1-carboxylic acid {4-[1-(2-methoxy-ethyl)-1H-pyrazol-4-yl]-phenyl}-methyl-amide] | < 300 | < 300 | < 3e-07 | 3000 to 50000 | – | –
COc1ccc(C(=O)C2CCN(C(=O)N(C)c3ccc(-c4cnn(CCN5CCCC5)c4)cc3)CC2)cc1 [Compound A36, 4-(4-methoxy-benzoyl)-piperidine-1-carboxylic acid methyl-{4-[1-(2-pyrrolidin-1-yl-ethyl)-1H-pyrazol-4-yl]-phenyl}-amide] | < 300 | < 300 | < 3e-07 | 3000 to 50000 | – | –
CCOC(=O)CN(C(=O)N1CCC(C(=O)c2ccccc2)CC1)c1ccccc1 [Compound A39, [(4-benzoyl-piperidine-1-carbonyl)-phenyl-amino]-acetic acid ethyl ester] | < 300 | < 300 | 3e-07 to 3e-06 | 3000 to 50000 | – | –
COCCn1cc(-c2ccc(N(C)C(=O)N3CCC(C(=O)c4ccc(OC)cc4)CC3)cc2)cn1 [Compound A31, 4-(4-methoxy-benzoyl)-piperidine-1-carboxylic acid {4-[1-(2-methoxy-ethyl)-1H-pyrazol-4-yl]-phenyl}-methyl-amide] | < 300 | < 300 | < 3e-07 | 3000 to 50000 | – | –

From patent US9770446B2, “Piperidine urea derivatives” (MERCK PATENT GMBH, priority 2013, dated 2017)
